Test results published in patent US20250352549A1, “SUBSTITUTED HETEROCYCLIC COMPOUND DERIVATIVES AND THEIR PHARMACEUTICAL USE” (AVELOS THERAPEUTICS INC., priority 0001, published 2025).

biological target: Wild-type human active MASTL (Homo sapiens (Human), UniProt Q96GX5); assay: MASTL activity assay; format: biochemical; conditions: ATP 18 μM, biotin tagged 40-mer ENSA peptide 10 nM, 60 minutes at room temperature, HTRF/FRET readout
Experimental: Wild-type human active MASTL (154 pM) was incubated in assay buffer (50 mM HEPES, 100 mM NaCl, 0.1 mM EGTA, 10 mM MgCl2, 0.01% Tween-20, 0.5 mM TCEP, pH 7.5) with biotin tagged 40-mer ENSA peptide (10 nM), test compound and ATP (18 μM) for 60 minutes at room temperature. Test compounds were assayed using a 12-point dose range consisting of a 0, DMSO control and 10 sequential doses consisting from 0.0005, 0.002, 0.005, 0.014, 0.04, 0.12, 0.37, 1.11, 3.33 and 10 μM. The DMSO concentration was the same (1%) in all samples. An equal volume of detection buffer (assay buffer+267.5 pM Ab-K, 1.25 nM SA-D2, 20 mM EDTA and 400 mM KF) was added to stop the reaction to make a final volume of 20 μl, RT for 60 mins. Activity was measured using a plate reader (PerkinElmer EnSight) by the FRET signal generated between SA-D2 (streptavidin-D2) and Ab-K (anti-phospho-Serine 67 ENSA antibody (rabbit polyclonal, using standard techniques by a commercial supplier) conjugated to Cryptate). HTRF reagents (CisBio) were prepared as per the manufacturer recommendations. The 40-mer biotin-tagged ENSA peptide (synthesised by Bionics) used was based around Serine 67 on ENSA ([…]).

Chain of Wild-type human active MASTL (Q96GX5 whole entry): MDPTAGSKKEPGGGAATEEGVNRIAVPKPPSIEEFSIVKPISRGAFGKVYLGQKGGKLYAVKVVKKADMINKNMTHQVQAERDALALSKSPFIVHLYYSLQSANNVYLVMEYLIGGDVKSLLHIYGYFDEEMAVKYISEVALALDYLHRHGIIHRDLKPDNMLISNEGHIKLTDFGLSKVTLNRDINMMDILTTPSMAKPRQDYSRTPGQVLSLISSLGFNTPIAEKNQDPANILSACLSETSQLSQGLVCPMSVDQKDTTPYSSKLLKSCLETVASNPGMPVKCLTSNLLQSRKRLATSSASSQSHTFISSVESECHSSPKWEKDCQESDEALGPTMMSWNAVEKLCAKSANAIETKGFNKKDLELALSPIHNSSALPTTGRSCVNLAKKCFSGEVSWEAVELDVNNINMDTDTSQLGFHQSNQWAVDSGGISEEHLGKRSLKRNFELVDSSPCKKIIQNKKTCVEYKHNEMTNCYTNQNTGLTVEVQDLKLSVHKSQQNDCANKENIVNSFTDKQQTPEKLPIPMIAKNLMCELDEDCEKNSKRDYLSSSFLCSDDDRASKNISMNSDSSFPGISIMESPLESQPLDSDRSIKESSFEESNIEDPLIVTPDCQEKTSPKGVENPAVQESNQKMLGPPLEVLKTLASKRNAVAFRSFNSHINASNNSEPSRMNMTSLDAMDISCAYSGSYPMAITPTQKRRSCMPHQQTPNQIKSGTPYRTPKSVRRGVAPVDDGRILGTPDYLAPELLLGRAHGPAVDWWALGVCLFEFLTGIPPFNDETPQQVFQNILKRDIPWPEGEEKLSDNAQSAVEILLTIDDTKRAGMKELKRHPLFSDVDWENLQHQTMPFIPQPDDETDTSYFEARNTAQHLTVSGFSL

IC50 [nM]	SMILES
1 to 500	Cc1ncc2ccc(-c3nc(N)nc(N[C@@H](c4ccc(F)cn4)C(C)C)n3)cn12 (single isomer, unassigned) [Example 136A, N2-[(1R or 1S)-1-(5-fluoro-2-pyridyl)-2-methyl-propyl]-6-(3-methylimidazo[1,5-a]pyridin-6-yl)-1,3,5-triazine-2,4-diamine]
> 1000	Cc1ncc2ccc(-c3nc(N)nc(N[C@H](c4ccc(F)cn4)C(C)C)n3)cn12 (single isomer, unassigned) [Example 136B, N2-[(1R or 1S)-1-(5-fluoro-2-pyridyl)-2-methyl-propyl]-6-(3-methylimidazo[1,5-a]pyridin-6-yl)-1,3,5-triazine-2,4-diamine]
1 to 500	Cc1ncc2ccc(-c3nc(N)nc(N[C@@H](c4c[nH]c(C(F)(F)F)n4)C(C)C)n3)cn12 (single isomer, unassigned) [Example 142A, 6-(3-methylimidazo[1,5-a]pyridin-6-yl)-N2-[(1R or 1S)-2-methyl-1-[2-(trifluoromethyl)-1H-imidazol-4-yl]propyl]-1,3,5-triazine-2,4-diamine]
1 to 500	Cc1ncc2ccc(-c3nc(N)nc(N[C@H](c4c[nH]c(C(F)(F)F)n4)C(C)C)n3)cn12 (single isomer, unassigned) [Example 142B, 6-(3-methylimidazo[1,5-a]pyridin-6-yl)-N2-[(1R or 1S)-2-methyl-1-[2-(trifluoromethyl)-1H-imidazol-4-yl]propyl]-1,3,5-triazine-2,4-diamine]
1 to 500	Cc1ncc2ccc(-c3nc(N)nc(NC[C@@H](O)c4cccc(Cl)c4Cl)n3)cn12 (single isomer, unassigned) [Example 146B, (1S or 1R)-[[4-amino-6-(3-methylimidazo[1,5-a]pyridin-6-yl)-1,3,5-triazin-2-yl]amino]-1-(2,3-dichlorophenyl) ethanol]
1 to 500	CNc1nc(N[C@@H](c2c[nH]c(C(F)(F)F)n2)C(C)C)nc(-c2ccc3cnc(C)n3c2)n1 (single isomer, unassigned) [Example 149A, N2-methyl-6-(3-methylimidazo[1,5-a]pyridin-6-yl)-N4-[(1S or 1R)-2-methyl-1-[2-(trifluoromethyl)-1H-imidazol-4-yl]propyl]-1,3,5-triazine-2,4-diamine]
1 to 500	CNc1nc(N[C@H](c2c[nH]c(C(F)(F)F)n2)C(C)C)nc(-c2ccc3cnc(C)n3c2)n1 (single isomer, unassigned) [Example 149B, N2-methyl-6-(3-methylimidazo[1,5-a]pyridin-6-yl)-N4-[(1S or 1R)-2-methyl-1-[2-(trifluoromethyl)-1H-imidazol-4-yl]propyl]-1,3,5-triazine-2,4-diamine]
1 to 500	Cc1ncc2ccc(-c3nc(N)nc(N[C@H](CC(C)C)c4c[nH]c(C(F)(F)F)n4)n3)cn12 (single isomer, unassigned) [Example 152A, 6-(3-methylimidazo[1,5-a]pyridin-6-yl)-N4-[(1S or 1R)-3-methyl-1-[2-(trifluoromethyl)-1H-imidazol-4-yl]butyl]-1,3,5-triazine-2,4-diamine]
1 to 500	Cc1ncc2ccc(-c3nc(N)nc(N[C@@H](CC(C)C)c4c[nH]c(C(F)(F)F)n4)n3)cn12 (single isomer, unassigned) [Example 152B, 6-(3-methylimidazo[1,5-a]pyridin-6-yl)-N4-[(1S or 1R)-3-methyl-1-[2-(trifluoromethyl)-1H-imidazol-4-yl]butyl]-1,3,5-triazine-2,4-diamine]
500 to 1000	Cc1nc([C@H](Nc2nc(N)nc(-c3ccc4cnc(C)n4c3)n2)C(C)C)c[nH]1 (single isomer, unassigned) [Example 155A, 6-(3-methylimidazo[1,5-a]pyridin-6-yl)-N4-[(1S or 1R)-2-methyl-1-(2-methyl-1H-imidazol-4-yl)propyl]-1,3,5-triazine-2,4-diamine]
1 to 500	Cc1nc([C@@H](Nc2nc(N)nc(-c3ccc4cnc(C)n4c3)n2)C(C)C)c[nH]1 (single isomer, unassigned) [Example 155B, 6-(3-methylimidazo[1,5-a]pyridin-6-yl)-N4-[(1S or 1R)-2-methyl-1-(2-methyl-1H-imidazol-4-yl)propyl]-1,3,5-triazine-2,4-diamine]

The remaining lines, values behind:

SMILES	IC50 [nM]
Cc1ncc2ccc(-c3nc(N)nc(N[C@H](CC4CC4)c4c[nH]c(C(F)(F)F)n4)n3)cn12 (single isomer, unassigned) [Example 7A, N4-[(1S or 1R)-2-cyclopropyl-1-[2-(trifluoromethyl)-1H-imidazol-4-yl]ethyl]-6-(3-methylimidazo[1,5-a]pyridin-6-yl)-1,3,5-triazine-2,4-diamine]	1 to 500
Cc1ncc2ccc(-c3nc(N)nc(N[C@@H](CC4CC4)c4c[nH]c(C(F)(F)F)n4)n3)cn12 (single isomer, unassigned) [Example 7B, N4-[(1S or 1R)-2-cyclopropyl-1-[2-(trifluoromethyl)-1H-imidazol-4-yl]ethyl]-6-(3-methylimidazo[1,5-a]pyridin-6-yl)-1,3,5-triazine-2,4-diamine]	1 to 500
CNc1nc(N[C@@H](c2ccn(C(F)F)n2)C(C)C)nc(-c2ccc3cnn(C)c3c2)n1 (single isomer, unassigned) [Example 29A, N4-[(1S or 1R)-1-[1-(difluoromethyl)pyrazol-3-yl]-2-methyl-propyl]-N2-(trideuteriomethyl)-6-[1-(trideuteriomethyl)indazol-6-yl]-1,3,5-triazine-2,4-diamine]	1 to 500
CNc1nc(N[C@H](c2ccn(C(F)F)n2)C(C)C)nc(-c2ccc3cnn(C)c3c2)n1 (single isomer, unassigned) [Example 29B, N4-[(1S or 1R)-1-[1-(difluoromethyl)pyrazol-3-yl]-2-methyl-propyl]-N2-(trideuteriomethyl)-6-[1-(trideuteriomethyl)indazol-6-yl]-1,3,5-triazine-2,4-diamine]	> 1000
CC(C)C(Nc1nc(N)nc(-c2ccc3c(cnn3C)c2)n1)c1ccn(C(F)F)n1 (single isomer, unassigned) [Example 47A, (R or S)—N2-(1-(1-(difluoromethyl)-1H-pyrazol-3-yl)-2-methylpropyl)-6-(1-methyl-1H-indazol-5-yl)-1,3,5-triazine-2,4-diamine]	1 to 500
CC[C@@H](Nc1nc(N)nc(-c2ccc3cnc(C)n3c2)n1)c1ccc(F)nc1 (single isomer, unassigned) [Example 141A, N2-[(1R or 1S)-1-(6-fluoro-3-pyridyl)propyl]-6-(3-methylimidazo[1,5-a]pyridin-6-yl)-1,3,5-triazine-2,4-diamine]	500 to 1000
CC[C@H](Nc1nc(N)nc(-c2ccc3cnc(C)n3c2)n1)c1ccc(F)nc1 (single isomer, unassigned) [Example 141B, N2-[(1R or 1S)-1-(6-fluoro-3-pyridyl)propyl]-6-(3-methylimidazo[1,5-a]pyridin-6-yl)-1,3,5-triazine-2,4-diamine]	500 to 1000
CNc1nc(NC[C@H](O)c2cccc(Cl)c2Cl)cc(-c2ccc3cnc(C)n3c2)n1 (single isomer, unassigned) [Example 143A, (1R or 1S)-1-(2,3-dichlorophenyl)-2-[[2-(methylamino)-6-(3-methylimidazo[1,5-a]pyridin-6-yl)pyrimidin-4-yl]amino]ethanol]	1 to 500
CNc1nc(NCC(O)c2cccc(Cl)c2Cl)cc(-c2ccc3cnc(C)n3c2)n1 (single isomer, unassigned) [Example 143B, (1R or 1S)-1-(2,3-dichlorophenyl)-2-[[2-(methylamino)-6-(3-methylimidazo[1,5-a]pyridin-6-yl)pyrimidin-4-yl]amino]ethanol]	> 1000
Cc1ncc2ccc(-c3nc(N)nc(NC[C@H](O)c4cccc(Cl)c4Cl)n3)cn12 (single isomer, unassigned) [Example 146A, (1S or 1R)-[[4-amino-6-(3-methylimidazo[1,5-a]pyridin-6-yl)-1,3,5-triazin-2-yl]amino]-1-(2,3-dichlorophenyl) ethanol]	1 to 500
Cc1ncc2ccc(-c3nc(N)nc(NC(c4c[nH]c(C(F)(F)F)n4)C4CCCCC4)n3)cn12 (single isomer, unassigned) [Example 153A, N4-[(S or R)-cyclohexyl-[2-(trifluoromethyl)-1H-imidazol-4-yl]methyl]-6-(3-methylimidazo[1,5-a]pyridin-6-yl)-1,3,5-triazine-2,4-diamine]	1 to 500
Cc1ncc2ccc(-c3nc(N)nc(NC(c4c[nH]c(C(F)(F)F)n4)C4CCCCC4)n3)cn12 (single isomer, unassigned) [Example 153B, N4-[(S or R)-cyclohexyl-[2-(trifluoromethyl)-1H-imidazol-4-yl]methyl]-6-(3-methylimidazo[1,5-a]pyridin-6-yl)-1,3,5-triazine-2,4-diamine]	1 to 500
CC(C)CC(Nc1nc(N)nc(-c2ccc3cnn(C)c3c2)n1)c1c[nH]c(C(F)(F)F)n1 (single isomer, unassigned) [Example 180A, 6-(1-methylindazol-6-yl)-N4-[(1R or 1S)-3-methyl-1-[2-(trifluoromethyl)-1H-imidazol-4-yl]butyl]-1,3,5-triazine-2,4-diamine]	> 1000
